The record followed here is patent US9062026B2, “Fused pyrimidines and substituted quinazolines as inhibitors of p97” (Cleave Biosciences, Inc., priority 2012, dated 2015).

One experiment deals with A549 K48. Kind of experiment: A549 K48 cell intensity (lysine-48 poly-ubiquitin accumulation, immunofluorescence). The class given is cell-based. Conditions: Homo sapiens. On the procedure: Image-analysis is used to generate quantitative data from these assays that can be fit to a four-parameter sigmoid curve to derive IC50 values. Substrates of the ubiquitin-proteasome system, such as p53, are monitored after tumor cell lines are incubated with compounds for several hours. Accumulation of these proteins indicates an inhibition of proteasome-mediated degradation. Accumulation of lysine-48 chain linkage of poly-ubiquitin is also monitored by immunofluorescence as an indicator of ubiquitin-proteasome system inhibition. Both LC3 and SQSTM1 are mediators of autophagy. The localization and amounts of these proteins are monitored by immunofluorescence and report on the activity and inhibition of autophagy in response to p97 inhibition.

The next experiment has as its target p97 (Homo sapiens (Human), UniProt P55072). Kind of experiment: P97 ATPase biochem assay (ADP Glo). The format is biochemical. To be noted: read-out: p97 IC50. The procedure:
The ATPase assay is performed according the following protocol: Purified enzyme (20 nM p97), substrate (20 μM ATP) and a dose titration of compounds are mixed in buffer (50 mM TRIS pH 7.5, 20 mM MgCl2, 0.02% TX-100, 1 mM DTT, 0.2% (v/v) glycerol) and incubated at 37° C. for 15 minutes. The reaction is terminated and the level of product generated is measured using the ADP Glo Assay Kit (Promega, Madison Wis.). Plotting product generated versus compound concentration and using a four-parameter fit model generates an IC50 value for each compounds.
(In ADP-Glo the light output rises with the ADP produced.)

SMILES strings stand for the structures. Where only a bound is given, the exact number is not on record here.

Sequence of p97 (P55072 whole entry): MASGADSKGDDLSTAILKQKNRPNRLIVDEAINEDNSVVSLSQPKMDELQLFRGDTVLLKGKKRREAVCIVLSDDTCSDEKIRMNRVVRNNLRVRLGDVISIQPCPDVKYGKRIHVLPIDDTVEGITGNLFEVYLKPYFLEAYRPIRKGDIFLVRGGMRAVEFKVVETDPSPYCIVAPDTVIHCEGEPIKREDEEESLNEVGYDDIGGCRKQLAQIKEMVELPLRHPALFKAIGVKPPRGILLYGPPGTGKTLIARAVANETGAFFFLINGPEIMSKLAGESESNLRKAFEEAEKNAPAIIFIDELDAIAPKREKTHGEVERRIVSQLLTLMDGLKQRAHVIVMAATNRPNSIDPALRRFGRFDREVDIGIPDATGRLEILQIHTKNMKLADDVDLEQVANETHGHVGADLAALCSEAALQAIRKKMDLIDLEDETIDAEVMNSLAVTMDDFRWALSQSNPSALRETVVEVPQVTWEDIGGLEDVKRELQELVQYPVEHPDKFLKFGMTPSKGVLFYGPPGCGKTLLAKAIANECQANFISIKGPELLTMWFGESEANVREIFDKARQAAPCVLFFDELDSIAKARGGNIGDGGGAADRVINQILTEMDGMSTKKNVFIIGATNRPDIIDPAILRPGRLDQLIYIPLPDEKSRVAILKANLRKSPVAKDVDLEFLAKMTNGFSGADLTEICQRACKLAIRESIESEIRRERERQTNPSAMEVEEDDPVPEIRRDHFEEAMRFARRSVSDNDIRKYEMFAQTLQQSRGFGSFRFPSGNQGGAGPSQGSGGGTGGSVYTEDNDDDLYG

As to `COc1cc2c(C#N)cccc2n1-c1nc2c(c(NCc3ccccc3)n1)CCCC2` [1-[4-(benzylamino)-5,6,7,8-tetrahydroquinazolin-2-yl]-2-methoxy-1H-indole-4-carbonitrile], the IC50 in the experiment on A549 K48 is below 10 µM; on p97 it was below 0.1 µM.

Regarding `Cc1nc2c(C#N)cccc2n1-c1nc2c(c(NCc3ccccc3)n1)CCCC2` [1-[4-(benzylamino)-5,6,7,8-tetrahydroquinazolin-2-yl]-2-methyl-1H-1,3-benzodiazole-4-carbonitrile], the IC50 with A549 K48 was below 10 µM; at p97 it was below 0.1 µM. The matching figures for `Cc1cc2c(C(N)=O)cccc2n1-c1nc2c(c(NCc3ccccc3)n1)CNCC2` [1-[4-(benzylamino)-5H,6H,7H,8H-pyrido[4,3-d]pyrimidin-2-yl]-2-methyl-1H-indole-4-carboxamide]: below 10 µM and below 0.1 µM. Turning to `COc1cc2c(C#N)cccc2n1-c1nc2c(c(NCc3ccccc3)n1)COCC2` [1-[4-(benzylamino)-5H,7H,8H-pyrano[4,3-d]pyrimidin-2-yl]-2-methoxy-1H-indole-4-carbonitrile], the IC50 was below 10 µM in the experiment with A549 K48 and below 0.1 µM on p97. The matching figures for `COc1cc2c(C(N)=O)cccc2n1-c1nc2c(c(NCc3ccccc3)n1)COCC2` [1-[4-(benzylamino)-5H,7H,8H-pyrano[4,3-d]pyrimidin-2-yl]-2-methoxy-1H-indole-4-carboxamide]: below 10 µM and below 0.03 µM. The molecule `Cc1cc2c(C(N)=O)cccc2n1-c1nc2c(c(NCc3ccccc3)n1)COCC2` [1-[4-(benzylamino)-5H,7H,8H-pyrano[4,3-d]pyrimidin-2-yl]-2-methyl-1H-indole-4-carboxamide] displayed an IC50 in the experiment with A549 K48 below 10 µM. For the molecule `Cc1cc2c(C#N)cccc2n1-c1nc2c(c(NCc3ccccc3)n1)CN(C)CC2` [1-[4-(benzylamino)-6-methyl-5H,6H,7H,8H-pyrido[4,3-d]pyrimidin-2-yl]-2-methyl-1H-indole-4-carbonitrile], the IC50 in the experiment on A549 K48 was below 10 µM; on p97, below 0.1 µM. The like results for `COc1cccc2c(NCc3ccccc3)nc(-n3c(C(C)N)cc4ccccc43)nc12` (stereo not drawn) [2-[2-(1-aminoethyl)-1H-indol-1-yl]-N-benzyl-8-methoxyquinazolin-4-amine] were, in that order, below 10 µM and below 0.3 µM. The matching figures for `NCc1cc2ccccc2n1-c1nc2c(c(NCc3ccccc3)n1)CCCC2` [2-[2-(aminomethyl)-1H-indol-1-yl]-N-benzyl-5,6,7,8-tetrahydroquinazolin-4-amine]: below 10 µM and below 0.3 µM. The matching figures for `NC(=O)NCc1cc2ccccc2n1-c1nc2c(c(NCc3ccccc3)n1)CCCC2` [({1-[4-(benzylamino)-5,6,7,8-tetrahydroquinazolin-2-yl]-1H-indol-2-yl}methyl)urea]: below 10 µM and below 0.1 µM. As to `CC(=O)NCc1cc2ccccc2n1-c1nc2c(c(NCc3ccccc3)n1)CCCC2` [N-({1-[4-(benzylamino)-5,6,7,8-tetrahydroquinazolin-2-yl]-1H-indol-2-yl}methyl)acetamide], the IC50 is below 10 µM in the experiment with A549 K48 and below 0.1 µM at p97. Regarding `CS(=O)(=O)NCc1cc2ccccc2n1-c1nc2c(c(NCc3ccccc3)n1)CCCC2` [N-({1-[4-(benzylamino)-5,6,7,8-tetrahydroquinazolin-2-yl]-1H-indol-2-yl}methyl)methanesulfonamide], the figures for the IC50 with A549 K48 and at p97 were below 10 µM and below 0.3 µM, respectively. The like results for `Clc1cc2ccccc2n1-c1nc2c(c(NCc3ccccc3)n1)CCCC2` [N-benzyl-2-(2-chloro-1H-indol-1-yl)-5,6,7,8-tetrahydroquinazolin-4-amine] were, in that order, below 10 µM and below 0.1 µM.

Take `CCOc1cc2ccccc2n1-c1nc2c(c(NCc3ccccc3)n1)CCCC2` [N-benzyl-2-(2-ethoxy-1H-indol-1-yl)-5,6,7,8-tetrahydroquinazolin-4-amine]: the IC50 in the experiment on A549 K48 is below 10 µM; on p97 it was below 0.1 µM. With `COCCOc1cccc2c(NCc3ccccc3)nc(-n3c(OC)nc4ccccc43)nc12` [N-benzyl-2-(2-methoxy-1H-1,3-benzodiazol-1-yl)-8-(2-methoxyethoxy)quinazolin-4-amine], the IC50 in the experiment with A549 K48 is below 10 µM; at p97 it was below 0.3 µM. The matching figures for `COc1cc2ccccc2n1-c1nc2c(c(NCc3ccccc3)n1)CCCC2` [N-benzyl-2-(2-methoxy-1H-indol-1-yl)-5,6,7,8-tetrahydroquinazolin-4-amine]: below 10 µM and below 0.03 µM. The matching figures for `COc1cc2ccccc2n1-c1nc2c(c(NCc3ccccc3)n1)COCC2` [N-benzyl-2-(2-methoxy-1H-indol-1-yl)-5H,7H,8H-pyrano[4,3-d]pyrimidin-4-amine]: below 10 µM and below 0.3 µM. The like results for `COc1cccc2c(NCc3ccccc3)nc(-n3c(/C=C/S(C)(=O)=O)cc4ccccc43)nc12` [N-benzyl-2-{2-[(E)-2-methanesulfonylethenyl]-1H-indol-1-yl}-8-methoxyquinazolin-4-amine] were, in that order, below 10 µM and below 0.3 µM. For `CN(C)Cc1cc2ccccc2n1-c1nc2c(c(NCc3ccccc3)n1)CCCC2` [N-benzyl-2-{2-[(dimethylamino)methyl]-1H-indol-1-yl}-5,6,7,8-tetrahydroquinazolin-4-amine], the half-inhibitory concentration (IC50) in the experiment with A549 K48 is below 10 µM; on p97 it was below 0.3 µM. The like results for `COCCOc1cccc2c(NCc3ccccc3)nc(-n3c(C)cc4ccccc43)nc12` [N-benzyl-8-(2-methoxyethoxy)-2-(2-methyl-1H-indol-1-yl)quinazolin-4-amine] were, in that order, below 10 µM and below 0.1 µM. `COc1cccc2c(NCc3ccccc3)nc(-n3c(OC)cc4ccccc43)nc12` [N-benzyl-8-methoxy-2-(2-methoxy-1H-indol-1-yl)quinazolin-4-amine]: the IC50 in the experiment on A549 K48 is below 10 µM; at p97, below 0.1 µM. The matching figures for `COC(=O)NCc1cc2ccccc2n1-c1nc2c(c(NCc3ccccc3)n1)CCCC2` [methyl N-({1-[4-(benzylamino)-5,6,7,8-tetrahydroquinazolin-2-yl]-1H-indol-2-yl}methyl)carbamate]: below 10 µM and below 0.3 µM. The like results for `OCc1cc2ccccc2n1-c1nc2c(c(NCc3ccccc3)n1)CCCC2` [{1-[4-(benzylamino)-5,6,7,8-tetrahydroquinazolin-2-yl]-1H-indol-2-yl}methanol] were, in that order, below 10 µM and below 0.1 µM. Take `COCCOc1cccc2c(NCc3ccccc3)nc(-n3c(CO)nc4ccccc43)nc12` [{1-[4-(benzylamino)-8-(2-methoxyethoxy)quinazolin-2-yl]-1H-1,3-benzodiazol-2-yl}methanol]: on p97, the IC50 is below 0.3 µM. On to `COCCOc1cccc2c(NCc3ccccc3)nc(-n3c(CO)cc4ccccc43)nc12` [{1-[4-(benzylamino)-8-(2-methoxyethoxy)quinazolin-2-yl]-1H-indol-2-yl}methanol], for which the IC50 was below 10 µM with A549 K48 and below 0.1 µM at p97.

By IC50 is commonly meant the midpoint of a concentration-inhibition curve.
